*1 amine or outer side, *2 acyl side, *3 side chain or, on linkers, in order; H or OH if unused. Where a SMILES comes first, the peptide text is derived from it. Side-chain parts run from the residue outwards. [ ]: non-standard residue; d: D form. The star is where a group is joined. C20 diacid = O=C(O)CCCCCCCCCCCCCCCCCCC(=O)*; C18 diacid = O=C(O)CCCCCCCCCCCCCCCCC(=O)*; γGlu = O=C(O)[C@H](CCC(=O)[*:2])N[*:1]; NMeY = CN[C@@H](Cc1ccc(O)cc1)C(=O)O; AEEA = NCCOCCOCC(=O)O; Aib = CC(C)(N)C(=O)O; Sar = CNCC(=O)O
How the values were obtained:
[1] = target: T1, human GIP receptor (hGIPR) (Homo sapiens, UniProt P48546); experiment: Binding assay, displacement of [125I]GIP from HEK-293 membranes expressing GIPR; details: [125I]GIP displacement
T1 sequence (P48546 22-466): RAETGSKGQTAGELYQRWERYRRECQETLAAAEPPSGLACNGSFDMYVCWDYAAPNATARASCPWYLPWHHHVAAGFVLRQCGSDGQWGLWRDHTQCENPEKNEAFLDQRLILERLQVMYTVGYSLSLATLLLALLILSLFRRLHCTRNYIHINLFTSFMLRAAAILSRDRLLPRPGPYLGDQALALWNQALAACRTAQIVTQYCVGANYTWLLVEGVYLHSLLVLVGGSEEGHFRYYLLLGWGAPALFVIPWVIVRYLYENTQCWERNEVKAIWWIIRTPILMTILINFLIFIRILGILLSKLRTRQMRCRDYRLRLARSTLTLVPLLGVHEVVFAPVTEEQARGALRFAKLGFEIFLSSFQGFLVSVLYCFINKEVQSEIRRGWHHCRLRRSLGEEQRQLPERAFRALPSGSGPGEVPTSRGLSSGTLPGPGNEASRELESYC
Procedure: HEK-293 cells recombinantly over-expressing GIPR or GLP-1R were grown to 50% confluency, washed with warm 1×PBS (Gibco) and detached in HEPES/EDTA-buffer (100 mM HEPES pH 7.5, 5 mM EDTA). Cells were harvested by centrifugation at 4° C. and 3000×g and the pellets were stored at −80° C. until further processing.
After thawing on ice, pellets were resuspended in HEPES/EDTA-buffer and homogenized on ice for 1 min using Ultra-Turray T25. After subsequent sonification the cell debris was removed by centrifugation at 1000×g and 4° C. Supernatants were then ultra-centrifuged at 100000×g and 4° C. under vacuum for 30 min. Pellets were resuspended in HEPES/EDTA/NaCl-buffer (20 mM HEPES, 1 mM EDTA, 150 mM NaCl; add 1 Complete Mini Protease inhibitor cocktail to 10 ml buffer) and protein content was determined via BCA-Protein assay.

[2] = Dynamic light scattering (DLS) for the assessment of physical stability; assay type: physicochemical; details: DLS buffer system A
From the text: A monochromatic and coherent light beam (laser) is used to illuminate the liquid sample. Dynamic Light Scattering (DLS) measures light scattered from particles (1 nm≤radius≤1 μm) that undergo Brownian motion. This motion is induced by collisions between the particles and solvent molecules, that themselves are moving due to their thermal energy. The diffusional motion of the particles results in temporal fluctuations of the scattered light (R. Pecora, Dynamic Light Scattering: Applications of Photon Correlation Spectroscopy, Plenum Press, 1985).
The scattered light intensity fluctuations are recorded and transformed into an autocorrelation function. By fitting the autocorrelation curve to an exponential function, the diffusion coefficient D of the particles in solution can be derived. The diffusion coefficient is then used to calculate the hydrodynamic radius Rh (or apparent Stokes radius) through the Stokes-Einstein equation assuming spherical particles. This calculation is defined in ISO 13321 and ISO 22412 (International Standard ISO13321 Methods for Determination of Particle Size Distribution Part 8: Photon Correlation Spectroscopy, International Organisation for Standardisation (ISO) 1996; International Standard ISO22412 Particle Size Analysis—Dynamic Light Scattering, International Organisation for Standardisation, 2008).
In case of polydisperse samples, the autocorrelation function is the sum of the exponential decays corresponding to each of the species. The temporal fluctuations of the scattered light can then be used to determine the size distribution profile of the particle fraction or family. The first order result is an intensity distribution of scattered light as a function of the particle size. The intensity distribution is naturally weighted according to the scattering intensity of each particle fraction or family. For biological materials or polymers, the particle scattering intensity is proportional to the square of the molecular weight. Thus, small amount of aggregates/agglomerates or presence or a larger particle species can dominate the intensity distribution. However, this distribution can be used as a sensitive detector for the presence of large material in the sample.
The DLS technique produces distributions with inherent peak broadening. The polydispersity index % Pd is a measure of the width of the particle size distribution and is calculated by standard methods described in ISO13321 and ISO22412 [International Standard ISO13321 Methods for Determination of Particle Size Distribution Part 8: Photon Correlation Spectroscopy, International Organisation for Standardisation (ISO) 1996; International Standard ISO22412 Particle Size Analysis—Dynamic Light Scattering, International Organisation for Standardisation (ISO) 2008].
Solutions from solid samples were prepared in buffer systems (see below) with a target concentration of 300 μM compound based on the previously determined % purity.
DLS buffer system A) 20 mM phosphate buffer pH 7.4
DLS buffer system B) 8 mM phosphate buffer pH 7.4, 14 mg/ml propylene glycol, 5.5 mg/ml phenol
DLS buffer system C) 100 mM phosphate buffer pH 7.4, 2.7 mg/ml m-cresol Solutions were filtered through 0.22 μm pore size and filled into sterilized glass containers under laminar flow conditions. For every peptide solution, the apparent hydrodynamic radius (Rh), the corresponding Scattering Intensity (I), and the Mass Contribution (M) were determined as an average over 3-6 replicates from the intensity distribution of the scattered light averaging only high-quality measurements. Relative standard deviations (RSD) for these parameters were calculated from the same number of replicates. […]

| SMILES | IC50 [1] | I and SD (Scattering Intensity) ([2]; 0 weeks) | M and SD (Mass Contribution) ([2]; 0 weeks) | apparent Rh and SD ([2]; 0 weeks) | I and SD (Scattering Intensity) ([2]; 4 weeks storage at 40° C.) | M and SD (Mass Contribution) ([2]; 4 weeks storage at 40° C.) | apparent Rh and SD ([2]; 4 weeks storage at 40° C.) |
| --- | --- | --- | --- | --- | --- | --- | --- |
| CC[C@H](C)[C@H](NC(=O)[C@H](CCCNC(=N)N)NC(=O)[C@H](CC(=O)O)NC(=O)[C@H](CCCCNC(=O)CN(C)C(=O)CN(C)C(=O)CN(C)C(=O)CC[C@H](NC(=O)CCCCCCCCCCCCCCCCC(=O)O)C(=O)O)NC(=O)C(C)(C)NC(=O)[C@@H](NC(=O)[C@H](CO)NC(=O)[C@H](CC(C)C)NC(=O)[C@H](CC(=O)O)NC(=O)[C@H](CO)NC(=O)[C@@H](NC(=O)[C@H](Cc1ccccc1)NC(=O)[C@@H](NC(=O)CNC(=O)[C@H](CCC(=O)O)NC(=O)C(C)(C)NC(=O)[C@@H](N)Cc1ccc(O)cc1)[C@@H](C)O)[C@@H](C)CC)[C@@H](C)CC)C(=O)N[C@@H](Cc1c[nH]cn1)C(=O)N[C@@H](CCC(N)=O)C(=O)NC(C)(C)C(=O)N[C@@H](CCC(=O)O)C(=O)N[C@@H](Cc1ccccc1)C(=O)N[C@H](C(=O)N[C@@H](CCC(=O)O)C(=O)N[C@@H](Cc1c[nH]c2ccccc12)C(=O)N[C@@H](CC(C)C)C(=O)N[C@@H](CC(C)C)C(=O)N[C@@H](C)C(=O)N[C@@H](CCC(N)=O)C(=O)NCC(=O)N1CCC[C@H]1C(=O)N[C@@H](CO)C(=O)N[C@@H](CO)C(=O)NCC(=O)N[C@@H](C)C(=O)N1CCC[C@H]1C(=O)N1CCC[C@H]1C(=O)N1CCC[C@H]1C(=O)N[C@@H](CO)C(N)=O)[C@@H](C)CC [SEQ ID NO: 6, H2N-Y-Aib-E-G-T-F-I-S-D-I-S-I-Aib-K[{N-MeGly}3-gGlu-C18OH]-D-R-I-H-Q-Aib-E-F-I-E-W-I-L-A-Q-G-P-S-S-G-A-P-P-P-S-NH2] (H-Y[Aib]EGTFISDLSI[Aib]K([Sar-Sar-Sar-γGlu-C18 diacid])DRIHQ[Aib]EFIEWLLAQGPSSGAPPPS-NH2) | 0.1 nM | 86 ± 2% | 100 ± 0% | 1.92 ± 0.03 nm | 83 ± 1% | 100 ± 0% | 1.94 ± 0.03 nm |
| CC[C@H](C)[C@H](NC(=O)[C@H](CCCNC(=N)N)NC(=O)[C@H](CC(=O)O)NC(=O)[C@H](CCCCNC(=O)COCCOCCNC(=O)COCCOCCNC(=O)CC[C@H](NC(=O)CCCCCCCCCCCCCCCCCCC(=O)O)C(=O)O)NC(=O)C(C)(C)NC(=O)[C@@H](NC(=O)[C@H](CO)NC(=O)[C@H](CC(C)C)NC(=O)[C@H](CC(=O)O)NC(=O)[C@H](CO)NC(=O)[C@@H](NC(=O)[C@H](Cc1ccccc1)NC(=O)[C@@H](NC(=O)CNC(=O)[C@H](CCC(=O)O)NC(=O)C(C)(C)NC(=O)[C@@H](N)Cc1ccc(O)cc1)[C@@H](C)O)[C@@H](C)CC)[C@@H](C)CC)C(=O)N[C@@H](Cc1c[nH]cn1)C(=O)N[C@@H](CCC(N)=O)C(=O)NC(C)(C)C(=O)N[C@@H](CCC(=O)O)C(=O)N[C@@H](Cc1ccccc1)C(=O)N[C@H](C(=O)N[C@@H](CCC(=O)O)C(=O)N[C@@H](Cc1c[nH]c2ccccc12)C(=O)N[C@@H](CC(C)C)C(=O)N[C@@H](CC(C)C)C(=O)N[C@@H](C)C(=O)N[C@@H](CCC(N)=O)C(=O)NCC(=O)N1CCC[C@H]1C(=O)N[C@@H](CO)C(=O)N[C@@H](CO)C(=O)NCC(=O)N[C@@H](C)C(=O)N1CCC[C@H]1C(=O)N1CCC[C@H]1C(=O)N1CCC[C@H]1C(=O)N[C@@H](CO)C(N)=O)[C@@H](C)CC [SEQ ID NO: 7, H2N-Y-Aib-E-G-T-F-I-S-D-I-S-I-Aib-K[{AEEA}2-gGlu-C20OH]-D-R-I-H-Q-Aib-E-F-I-E-W-I-L-A-Q-G-P-S-S-G-A-P-P-P-S-NH2] (H-Y[Aib]EGTFISDLSI[Aib]K([AEEA-AEEA-γGlu-C20 diacid])DRIHQ[Aib]EFIEWLLAQGPSSGAPPPS-NH2) | 0.2 nM | 85 ± 2% | 100 ± 0% | 2.06 ± 0.03 nm | 73 ± 4% | 100 ± 0% | 2.04 ± 0.02 nm |
| CC[C@H](C)[C@H](NC(=O)[C@H](CCCNC(=N)N)NC(=O)[C@H](CC(=O)O)NC(=O)[C@H](CCCCNC(=O)COCCOCCNC(=O)COCCOCCNC(=O)CC[C@H](NC(=O)CCCCCCCCCCCCCCCCC(=O)O)C(=O)O)NC(=O)C(C)(C)NC(=O)[C@@H](NC(=O)[C@H](CO)NC(=O)[C@H](CC(C)C)NC(=O)[C@H](CC(=O)O)NC(=O)[C@H](CO)NC(=O)[C@@H](NC(=O)[C@H](Cc1ccccc1)NC(=O)[C@@H](NC(=O)CNC(=O)[C@H](CCC(=O)O)NC(=O)C(C)(C)NC(=O)[C@H](Cc1ccc(O)cc1)NC)[C@@H](C)O)[C@@H](C)CC)[C@@H](C)CC)C(=O)N[C@@H](Cc1c[nH]cn1)C(=O)N[C@@H](CCC(N)=O)C(=O)NC(C)(C)C(=O)N[C@@H](CCC(=O)O)C(=O)N[C@@H](Cc1ccccc1)C(=O)N[C@H](C(=O)N[C@@H](CCC(=O)O)C(=O)N[C@@H](Cc1c[nH]c2ccccc12)C(=O)N[C@@H](CC(C)C)C(=O)N[C@@H](CC(C)C)C(=O)N[C@@H](C)C(=O)N[C@@H](CCC(N)=O)C(=O)NCC(=O)N1CCC[C@H]1C(=O)N[C@@H](CO)C(=O)N[C@@H](CO)C(=O)NCC(=O)N[C@@H](C)C(=O)N1CCC[C@H]1C(=O)N1CCC[C@H]1C(=O)N1CCC[C@H]1C(=O)N[C@@H](CO)C(N)=O)[C@@H](C)CC [SEQ ID NO: 8, MeHN-Y-Aib-E-G-T-F-I-S-D-I-S-I-Aib-K[{AEEA}2-gGlu-C180H]-D-R-I-H-Q-Aib-E-F--E-W-I-L-A-Q-G-P-S-S-G-A-P-P-P-S-NH2] (H-[NMeY][Aib]EGTFISDLSI[Aib]K([AEEA-AEEA-γGlu-C18 diacid])DRIHQ[Aib]EFIEWLLAQGPSSGAPPPS-NH2) | 0.2 nM | 73 ± 3% | 100 ± 0% | 2.06 ± 0.03 nm | 78 ± 9% | 100 ± 0% | 2.00 ± 0.07 nm |

From US20230103631A1, “PEPTIDES AS SELECTIVE GIP RECEPTOR AGONISTS” (Sanofi, priority 2020, published 2023)
